Reference: US20130090364A1, “ANALOGUES FOR THE TREATMENT OR PREVENTION OF FLAVIVIRUS INFECTIONS” (priority 2010, published 2013)

What follows are compounds tested on HCV (1b) RNA replication (replicon I389Luc-ubi-neo/NS3-3′/5.1) (assay: Cell-based luciferase reporter HCV (1b) RNA replication assay, Huh-ET cells). Conditions: Hepatitis C virus; Table 2A; HCV genotype 1b replicon.
Text: Cell-Based Luciferase Reporter HCV (Ib) RNA Replication Assay Cell Culture
Replicon cell lines Huh-5.2 are derived from the Huh-7 hepatocarcinoma cell line are maintained in culture as generally described in Krieger, N; Lohmann, V; Bartenschlager, R. Enhancement of hepatitis C virus RNA replication by cell culture-adaptive mutations. J. Virol. 2001, 75, 4614-4624. The Huh-5.2 cells contain the highly cell culture-adapted replicon I389Luc-ubi-neo/NS3-3′/5.1 construct that carries, in addition to the neomycin gene, an integrated copy to the firefly luciferase gene (Krieger, N; Lohmann, V; Bartenschlager, R. Enhancement of hepatitis C virus RNA replication by cell culture-adaptive mutations. J. Virol. 2001, 75, 4614-4624). This cell line allows measurement of HCV RNA replication and translation by measuring luciferase activity. It has been previously shown that the luciferase activity tightly follows the replicon RNA level in these cells (Krieger, N; Lohmann, V; Bartenschlager, R. Enhancement of hepatitis C virus RNA replication by cell culture-adaptive mutations. J. Virol. 2001, 75, 4614-4624). The Huh-ET cell line has the same features as those mentioned for Huh-5.2 cell line, except that ET cells are more robust and contain an adaptative mutation in the HCV NS4B gene instead of NSSA. Both cell lines are maintained in cultures at a sub-confluent level (<85%) as the level of replicon RNA is highest in actively proliferating cells. The culture media used for cell passaging consist of DMEM (Gibco BRL Laboratories, Mississauga, ON, Canada) supplemented with 10% foetal bovine serum with 1% penicilin/streptomycin, 1% glutamine, 1% sodium pyruvate, 1% non-essential amino acids, and 180 μg/ml of G418 final concentration. Cells are incubated at 37° C., in an atmosphere of 5% CO2 and passaged twice a week to maintain sub-confluence.
Approximately 3000 viable Huh-ET cells (100 μl) are plated per well in a white opaque 96-well microtiter plate. The cell culture media used for the assay is the same as described above except that it contains no G418 and no phenol red. After an incubation period of 3-4 hours at 37° C. in a 5% CO2 incubator, compounds (100 μl) are added at various concentrations. Cells are then further incubated for 4 days at 37° C. in a 5% CO2 incubator. Thereafter, the culture media is removed and cells are lysed by the addition of 95 μL of the luciferase buffer (luciferin substrate in buffered detergent). Cell lysates are incubated at room temperature and protected from direct light for at least 10 minutes. Plates are read for luciferase counts using a luminometer (Wallac MicroBeta Trilux, Perkin Elmer™, MA, USA).
Curves are fitted to data points using nonlinear regression analysis, and IC50s are interpolated from the resulting curve using GraphPad Prism software, version 2.0 (GraphPad Software Inc., San Diego, Calif., USA).

Row | Compound | EC50 [nM]
1 | COC(=O)N[C@H](C(=O)N1C[C@@H](C)C[C@H]1c1nc2sc(-c3ccc(-c4ccc5nc([C@@H]6C[C@H](C)CN6C(=O)[C@@H](NC(=O)OC)C(C)C)n(C)c5c4)cc3)cc2[nH]1)C(C)C [Compound 9] | ≤ 5
2 | COC(=O)N[C@H](C(=O)N1C[C@@H](C)C[C@H]1c1cc2ccc(-c3ccc(-c4cc5[nH]c([C@@H]6C[C@H](C)CN6C(=O)[C@@H](NC(=O)OC)C(C)C)nc5s4)cc3)cc2[nH]1)C(C)C [Compound 10] | ≤ 5
3 | COC(=O)N[C@H](C(=O)N1C[C@@H](C)C[C@H]1c1ncc(-c2ccc(-c3ccc(-c4cc5[nH]c([C@@H]6C[C@H](C)CN6C(=O)[C@@H](NC(=O)OC)C(C)C)nc5s4)cc3)cc2)[nH]1)C(C)C [Compound 11] | ≤ 5
4 | COC(=O)N[C@H](C(=O)N1C[C@@H](C)C[C@H]1c1ncc(C#Cc2ccc(-c3cc4[nH]c([C@@H]5C[C@H](C)CN5C(=O)[C@@H](NC(=O)OC)C(C)C)nc4s3)cc2)[nH]1)C(C)C [Compound 12] | ≤ 5
5 | COC(=O)N[C@H](C(=O)N1C[C@@H](C)C[C@H]1c1nc2cc(-c3ccc(-c4cc5[nH]c([C@@H]6C[C@H](C)CN6C(=O)[C@@H](NC(=O)OC)C(C)C)nc5s4)cc3)ccc2[nH]1)C(C)C [Compound 13] | ≤ 5
6 | COC(=O)N[C@H](C(=O)N1C[C@@H](C)C[C@H]1c1nc2cc(C#Cc3ccc(-c4cc5[nH]c([C@@H]6C[C@H](C)CN6C(=O)[C@@H](NC(=O)OC)C(C)C)nc5s4)cc3)ccc2[nH]1)C(C)C [Compound 14] | ≤ 5
7 | COC(=O)N[C@H](C(=O)N1C[C@@H](C)C[C@H]1c1ncc(C#Cc2ccc(-c3ccc(-c4cc5[nH]c([C@@H]6C[C@H](C)CN6C(=O)[C@@H](NC(=O)OC)C(C)C)nc5s4)cc3)cc2)[nH]1)C(C)C [Compound 15] | ≤ 5
8 | COC(=O)N[C@H](C(=O)N1C[C@@H](C)C[C@H]1c1nc(-c2cc3sccc3s2)c(-c2ccc(-c3cc4nc([C@@H]5C[C@H](C)CN5C(=O)[C@@H](NC(=O)OC)C(C)C)[nH]c4s3)cc2)[nH]1)C(C)C [Compound 16] | ≤ 5
9 | COC(=O)N[C@H](C(=O)N1C[C@@H](C)C[C@H]1c1nc2cc(/C=C/c3ccc(-c4cc5[nH]c([C@@H]6C[C@H](C)CN6C(=O)[C@@H](NC(=O)OC)C(C)C)nc5s4)cc3)ccc2[nH]1)C(C)C [Compound 17] | ≤ 5
10 | C[C@H]1C[C@@H](c2nc3cc(-c4ccc(-c5ccc(-c6cc7[nH]c([C@@H]8C[C@H](C)CN8C(=O)OC(C)(C)C)nc7s6)cc5)s4)ccc3[nH]2)N(C(=O)OC(C)(C)C)C1 [Compound 18] | 5 to 5000
11 | COC(=O)N[C@H](C(=O)N1C[C@@H](C)C[C@H]1c1nc(-c2cccc(-c3ccc(-c4cc5nc([C@@H]6C[C@H](C)CN6C(=O)[C@@H](NC(=O)OC)C(C)C)[nH]c5s4)cc3)c2)c[nH]1)C(C)C [Compound 20] | ≤ 5
12 | COC(=O)N[C@H](C(=O)N1C[C@@H](C)C[C@H]1c1ncc(C#Cc2ccc(-c3ccc(-c4cc5[nH]c([C@@H]6C[C@H](C)CN6C(=O)[C@@H](NC(=O)OC)C(C)C)nc5s4)s3)cc2)[nH]1)C(C)C [Compound 21] | ≤ 5
13 | COC(=O)N[C@H](C(=O)N1C[C@@H](C)C[C@H]1c1ncc(-c2ccc(-c3ccc(-c4cc5[nH]c([C@@H]6C[C@H](C)CN6C(=O)[C@@H](NC(=O)OC)C(C)C)nc5s4)s3)cc2)[nH]1)C(C)C [Compound 22] | ≤ 5
14 | COC(=O)N[C@H](C(=O)N1C[C@@H](C)C[C@H]1c1nc(-c2csc3ccc(-c4ccc(-c5cc6nc([C@@H]7C[C@H](C)CN7C(=O)[C@@H](NC(=O)OC)C(C)C)[nH]c6s5)cc4)cc23)c[nH]1)C(C)C [Compound 23] | 5 to 5000
15 | COC(=O)N[C@H](C(=O)N1C[C@@H](C)C[C@H]1c1nc2cc(-c3ccc(-c4ccc(-c5cc6nc([C@@H]7C[C@H](C)CN7C(=O)[C@@H](NC(=O)OC)C(C)C)[nH]c6s5)cc4)cc3)sc2[nH]1)C(C)C [Compound 24] | ≤ 5
16 | COC(=O)N[C@H](C(=O)N1C[C@@H](C)C[C@H]1c1ncc(-c2ccc(-c3ccc(-c4cc5[nH]c([C@@H]6C[C@H](C)CN6C(=O)[C@@H](NC(=O)OC)C(C)C)nc5s4)cc3)s2)[nH]1)C(C)C [Compound 25] | ≤ 5
17 | COC(=O)N[C@H](C(=O)N1C[C@@H](C)C[C@H]1c1ncc(-c2ccc(-c3cc4sc(-c5cc6[nH]c([C@@H]7C[C@H](C)CN7C(=O)[C@@H](NC(=O)OC)C(C)C)nc6s5)cc4s3)cc2)[nH]1)C(C)C [Compound 26] | ≤ 5
18 | COC(=O)N[C@H](C(=O)N1C[C@@H](C)C[C@H]1c1nc2cc(-c3cc4sc(-c5cc6[nH]c([C@@H]7C[C@H](C)CN7C(=O)[C@@H](NC(=O)OC)C(C)C)nc6s5)cc4s3)ccc2[nH]1)C(C)C [Compound 27] | ≤ 5
19 | COC(=O)N[C@H](C(=O)N1C[C@@H](C)C[C@H]1c1nc(C)c(-c2ccc(-c3ccc(-c4cc5nc([C@@H]6C[C@H](C)CN6C(=O)[C@@H](NC(=O)OC)C(C)C)[nH]c5s4)cc3)cc2)[nH]1)C(C)C [Compound 28] | ≤ 5
20 | COC(=O)N[C@H](C(=O)N1C[C@@H](C)C[C@H]1c1ncc(-c2cc3sc(-c4ccc(-c5cc6[nH]c([C@@H]7C[C@H](C)CN7C(=O)[C@@H](NC(=O)OC)C(C)C)nc6s5)cc4)cc3s2)[nH]1)C(C)C [Compound 29] | ≤ 5
21 | COC(=O)N[C@H](C(=O)N1C[C@@H](C)C[C@H]1c1nc2sc(-c3ccc(-c4ccc(-c5cc6[nH]c([C@@H]7C[C@H](C)CN7C(=O)[C@@H](NC(=O)OC)C(C)C)nc6s5)s4)cc3)cc2[nH]1)C(C)C [Compound 30] | ≤ 5
22 | COC(=O)N[C@H](C(=O)N1C[C@@H](C)C[C@H]1c1ncc(C#Cc2ccc(-c3cc4[nH]c([C@@H]5C[C@H](C)CN5C(=O)[C@@H](NC(=O)OC)C(C)C)nc4s3)s2)[nH]1)C(C)C [Compound 31] | ≤ 5

Same assay, conditions: Hepatitis C virus; Table 2B; HCV genotype 1b replicon

Row | Compound | EC50 [nM]
23 | COC(=O)N[C@H](C(=O)N1C[C@@H](C)C[C@H]1c1ncc(-c2ccc(-c3ccc(-c4cc5[nH]c([C@@H]6C[C@H](C)CN6C(=O)[C@@H](NC(=O)OC)C(C)C)nc5s4)cc3)c(F)c2)[nH]1)C(C)C [Compound 9a] | ≤ 5
24 | COC(=O)N[C@H](C(=O)N1C[C@@H](C)C[C@H]1c1ncc(-c2ccc(-c3ccc(-c4cc5[nH]c([C@@H]6C[C@H](C)CN6C(=O)[C@@H](NC(=O)OC)C(C)C)nc5s4)cc3)cc2F)[nH]1)C(C)C [Compound 10a] | ≤ 5
25 | COC(=O)N[C@H](C(=O)N1C[C@@H](C)C[C@H]1c1ncc(-c2ccc(-c3ccc(-c4cc5[nH]c([C@@H]6C[C@H](C)CN6C(=O)[C@@H](NC(=O)OC)C(C)C)nc5s4)cc3)c(C)c2)[nH]1)C(C)C [Compound 12a] | ≤ 5
